Consider 3 compounds from US20100267952A1, “USE OF NOVEL COMPOUND HAVING AFFINITY FOR AMYLOID, AND PROCESS FOR PRODUCTION OF THE SAME” (NIHON MEDI-PHYSICS CO., LTD., priority 2007, published 2010).

What is called IC50 is the concentration needed to halve the response being measured.

The subject of data set [1] is bone marrow cells of Crlj:CD1 (ICR) male mouse. The data set can be described thus: Micronucleus test. The note with it: single oral administration 250-2000 mg/kg, 24 and 48 hours. It is filed as in vivo. Here is the method:
In order to study mutagenicity (in vivo) of Compound I-4, induction of micronucleated polychromatic erythrocyte (hereinafter referred to as MNPCE) was examined using bone marrow cells of Crlj:CD1 (ICR) male mouse.
0 mg/kg (negative control group), 250, 500, 1000 and 2000 mg/kg (test sample group) were set as doses for the test. Mice were sacrificed 24 and 48 hours after single oral administration, and bone marrow smear was prepared and observed. Further, a single dose of MMC at 2 mg/kg was abdominally administrated in positive control group, mice were sacrificed 24 hours after the administration, and then bone marrow smear was prepared and observed.
As statistical analysis, significance tests were conducted by Wilcoxon rank sum test for the appearance frequency of MNPCE and the ratio of polychromatic erythrocyte (hereinafter referred to as PCE) to the total red blood cell (hereinafter referred to as RBC) in each administration group concerning the test sample and positive control groups relative to the negative control group and concerning these groups relative to each other where the significance level was set to less than 5% and less than 1%, respectively.

For data set [2], the system named is Salmonella typhimurium TA98. Briefly: Reverse mutation test (Ames test), TA98. It is filed as cell-based. Here is the method:
(§1) In order to examine mutagenicity of Compound I-1, I-2, I-4 and I-5, reverse mutation test using Salmonella typhimurium TA98 and TA100 (hereinafter referred to as Ames test) was conducted.
(§2) The test was conducted without addition of S9mix and with addition of S9mix. Dimethylsulfoxide was used as a negative control. A positive control was 2-(2-furyl)-3-(5-nitro-2-furyl)acrylamide in case S9mix was not added, and 2-aminoanthracene in case S9mix was added.
(§3) The amount of each sample to be added to the test plate was 7 dosages (geometric ratio 4) with the maximum dose being 1250 μg/plate for Compounds I-1 and I-5, and 7 dosages (geometric ratio 3) with the maximum dose being 5000 μg/plate for Compounds I-2 and I-4. After a sample to be examined and a strain (TA98 or TA100), or a sample to be examined, S9mix and the strain were mixed together, the mixture was multilayered using soft agar on a medium of a test plate, and then incubated at 37° C. for 48 hours.
For orientation: The Ames test detects mutagens through reverse mutation in bacteria.

Data set [3] deals with Chinese Hamster fibroblast cell line (CHL/IU cell). Briefly: Chromosome aberration test. In kind it is cell-based. Conditions: with or without S9 short-term treatment and 24-hour continuous treatment; 0.15-1.2 mg/mL. Here is the method: In order to examine whether Compound I-4 can induce chromosome aberration, the chromosome aberration test was conducted using Chinese Hamster fibroblast cell line (CHL/IU cell) in a culture system with or without addition of S9 by short-term treatment process and in a 24-hour culture system by continuous treatment process. The addition amount of a sample to be tested was set to 1.2, 0.6, 0.3, and 0.15 mg/mL for all the respective culture systems.

In data set [4] the test system is Salmonella typhimurium TA100. The data set can be described thus: Reverse mutation test (Ames test), TA100. It is filed as cell-based. Here is the method: as §1, §2, §3
Data set [5] has as its system Salmonella typhimurium TA98 and TA100. Briefly: Reverse mutation test (Ames test), overall judgment. In kind it is cell-based. The note with it: TA98 and TA100, with and without S9mix. Here is the method: as §1, §2, §3
The numbers of reverse mutation colonies of the respective strains in the group treated with Compounds I-1, I-2, I-4 and I-5 were less than two times the number in the group treated with the negative control, regardless of addition of S9mix and the addition amount of a sample to be examined. From the aforementioned results, it is judged that Compounds I-1, I-2, I-4 and I-5 are negative in the Ames test and have no mutagenicity.

In data set [6] the target is T1, amyloid (aggregated Aβ1-40) (Homo sapiens, UniProt P05067).
T1 construct: Aβ1-40 (Peptide Institute, INC.) was dissolved in phosphate buffer (pH 7.4); purchased Peptide Institute, INC
T1 sequence (P05067 672-711 limits assumed): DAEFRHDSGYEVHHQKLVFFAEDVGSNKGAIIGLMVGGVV
Briefly: Measurement of affinity with amyloid: inhibition of [125I]3′-I-BTA-0 binding. The note with it: [125I]3′-I-BTA-0 400 pmol/L, amyloid 1 μmol/L, 22° C., 3 hours. Here is the method: Affinity of the present compounds with amyloid was examined by the following in vitro binding tests.
(1) Aβ1-40 (Peptide Institute, INC.) was dissolved in phosphate buffer (pH 7.4) and shaken at 37° C. for 62-72 hours, to obtain a 1 mg/mL suspension of aggregated Aβ (hereinafter referred to as amyloid suspension in this Example).
(3) According to the method described in a literature (Wang, Y., et al., J. Labeled Compounds Radiopharmaceut. 44, 5239 (2001)), [^125I]2-(3′-iodo-4′-aminophenyl)benzothiazole (hereinafter referred to as […]) was prepared from a labeling precursor 2-(4′-aminophenyl)benzothiazole, and dissolved in ethanol.
(5) Samples in which [^125I]3′-I-BTA-0, each compound for evaluation and amyloid were dissolved in a 0.1% bovine serum albumin-containing phosphate buffer (pH 7.4) at final concentrations shown in Table 1-2 were prepared. The resulting samples were filled in each well (about 0.3 mL in volume) of a 96-well microplate.
(6) The microplate filled with the sample solutions was shaken at a given rate (400 rpm) at 22° C. for 3 hours. Then, each sample solution was filtered through a glass fiber filter (trade name: Mulutiscreen™-FC, manufactured by Millipore), to separate the [^125I]3′-I-BTA-0 attached to amyloid from the free [^125I]3′-I-BTA-0.
(7) The glass fiber filter used for the filtration of each sample solution was washed with a 0.1% bovine serum albumin-containing phosphate buffer (pH 7.4) (0.5 mL×5), and radioactivity of the glass fiber filter was measured with an autowell gamma system (manufactured by Aloka, Type: ARC-301B).
(8) Separately, a solution of containing 15 μmol/L of 6-Me-BTA-2, […] of [^125I]3′-I-BTA-0 and 1 μmol/L of Aβ1-40 were prepared and subjected to the same procedures as described above in (6) and (7) to measure a radioactivity level. The measured radioactivity level was defined as the background radioactivity level, and used in the calculation of the inhibition ratio (hereinafter referred to as BG).
(9) Using the radioactivity levels measured above in (7) and (8), the inhibition ratio was determined by the following formula (1-1).
A graph in which values converted by probit transformation from the obtained inhibition ratios were plotted relative to logarithms of concentrations of compounds for evaluation was prepared to obtain an approximate straight line by the least square method. Using the line, the concentration of each compound for evaluation was determined, at which the radioactivity level is half of the level of the sample free from each compound for evaluation, and was defined as a 50% inhibition concentration of each compound (hereinafter referred to as IC50% value). Using the value as an indicator, affinity of each compound for evaluation with amyloid (aggregated Aβ1-40) was evaluated.

For data set [7] the following is noted: International Publication No. WO03/106439; cited from earlier work.
Data set [8] in a line: Partition coefficient based on HPLC. In kind it is physicochemical. The note with it: mobile phase 50 mM triethylamine phosphate (pH 7.2)/acetonitrile=40/60. Here is the method: Measurements of partition coefficient based on HPLC The partition coefficient by HPLC (hereinafter referred to as log PHPLC) was measured by the following method.
First, compounds for evaluation shown in Table 1-5 were dissolved at a concentration of 1 mg/mL in methanol containing 10% dimethylsulfoxide to prepare sample solutions. One μL of the sample solution was subjected to HPLC analysis under the following conditions to determine the elution time (t0) of the solvent and the elution time (tR) of each compound.
Column: Prodigy ODS (3) (product name; manufactured by phenomenex; size: 4.6×250 mm)
Mobile phase: a mixed solution of 50 mM triethylamine phosphate (pH 7.2)/acetonitrile=40/60
Detector: ultraviolet visible absorptiometer (detection wavelength: 282 nm)
Using the obtained t0 and tR, the retention factor (hereinafter referred to as K′HPLC value) of each compound for evaluation was determined according to the following calculation formula (1-3).
After the individual solutions were stirred for 30 seconds, the solutions were centrifuged at 2,000 rpm for 60 minutes. 1 mL each of the octanol phase and the water phase was fractionated, and the radioactivity was measured by an autowell gamma system (manufactured by Aloka Co., Ltd.: Type ARC-301B). Based on the obtained radioactivity, log Poctanol values were calculated according to the above equation (1-2). […]

Data set [9] can be described thus: Unspecific accumulation at sites without amyloid (applicant's studies). Conditions: results of our studies.
The nature of data set [10]: Transferability into brain and clearance. It is filed as in vivo, male Wistar rats. Conditions: rats, intravenous injection. An excerpt:
Three animals were used for Experiment I-20 and Comparative Experiment I-9, and two animals were used for Experiment I-21 at the respective time points.

Data set [11] in a line: Partition coefficient based on the octanol extraction method. It is filed as physicochemical. Conditions: octanol / 10 mmol/L phosphate buffer (pH 7.4).
Protocol: After the mixture was centrifuged with a low-speed centrifuge (2000 rpm×60 min.), the octanol layer and the water layer were sampled each in an amount of 1 mL, and subjected to measurement of radioactivity count with an autowell gamma system (manufactured by Aloka, Type: ARC-301B). Using the obtained radioactivity count, log Poctanol was calculated in accordance with the equation (1-2).
Data set [12] in a line: Partition coefficient based on the octanol extraction method (Example I-29). In kind it is physicochemical. The note with it: octanol / 10 mmol/L phosphate buffer (pH 7.4), Table I-9. Here is the method: To 2 mL of octanol, 10 μL each of the prepared sample solutions was added, and 2 mL of a 10 mmol/L phosphate buffer (pH 7.4) was further added, followed by stirring for 30 seconds.

Data set [13] is described as follows: Transferability into brain and clearance (2). It is filed as in vivo, male Wistar rats. The note with it: rats, intravenous injection, Table 1-10.
Protocol: 0.05 mL each of these solutions was injected under thiopental anesthesia into the tail vein of respective Wistar rats (7-week old). The rats were sacrificed by bleeding from abdominal artery, and brains were removed and subjected to measurement of mass of brains and further subjected to measurement of radioactivity (hereinafter referred to as A in this Example) with a single channel analyzer (detector type: SP-20 manufactured by OHYO KOKEN KOGYO Co., Ltd.) 2, 5, 30 and 60 minutes after the injection. Also, radioactivity (hereinafter referred to as B in this Example) of the rest of the whole body was measured in the same manner as above. Using these measurement results, radioactive distribution per unit weight of brain (% ID/g) at the respective time points were calculated in accordance with the following formula (1-7).
Three animals were used for experiment at the respective time points.

`FCCOc1ccc(-c2cn3cc(I)ccc3n2)cc1` [Compound I-4, 2-[4′-(2″-fluoroethoxy)phenyl]-6-iodoimidazo[1,2-a]pyridine]: the “mutagenicity (in vivo), induction of micronucleus” value in [1] is “negative”. Also, in [2] (with S9mix), the “Mutagenicity, TA98, With addition of S9mix” value is “Negative”. In data set [2] (without S9mix), the “Mutagenicity, TA98, Without addition of S9mix” value is “Negative”. Moreover, in [3], the “capability of inducing chromosome aberration” value is “negative”. Also, in data set [4] (with S9mix), the “Mutagenicity, TA100, With addition of S9mix” value is “Negative”. The “Mutagenicity, TA100, Without addition of S9mix” value in [4] (without S9mix) is on record as “Negative”. In data set [5], the Ames test judgment result is “negative”. The IC50 in data set [6] is 0.9 nM.

Take `CN(C)c1ccc(-c2cn3cc(I)ccc3n2)cc1` [IMPY, 6-iodo-2-[4′-(N,N-dimethylamino)phenyl]imidazo[1,2-a]pyridine]: the reverse mutation test entry in [7] is on record as “positive”. Further, the logPHPLC value in data set [8] is listed as 2.1. Moreover, the “unspecific accumulation on sites other than amyloid deposition” value in [9] is listed as “accumulates unspecifically on white matter or other sites where amyloid is not deposited”.

Regarding `CN(C)c1ccc(-c2cn3cc([123I])ccc3n2)cc1` [[^123I]-IMPY, reference compound], the results for the “Radioactive distribution per unit weight in brain, After 2 min.” value in [10] (2 min.) and in data set [13] (2 min.) were 1.02 % ID/g and 1.19 % ID/g, respectively. Moreover, the “Radioactive distribution per unit weight in brain, After 5 min.” value in data set [10] (5 min.) was determined as 0.99 % ID/g; in data set [13] (5 min.), 0.97 % ID/g. For the same compound, the entries for the “Radioactive distribution per unit weight in brain, After 30 min.” value in [10] (30 min.) and in [13] (30 min.) were 0.20 % ID/g and 0.23 % ID/g, respectively. The “Radioactive distribution per unit weight in brain, After 60 min.” value in data set [10] (60 min.) turned out to be 0.08 % ID/g; in data set [13] (60 min.), 0.09 % ID/g. The logPoctanol value in [11] and in [12] was 2.1 each time.
